Measurements as given in patent US10570157B2, “Cyclic diarylboron derivatives as NLRP3 inflammasome inhibitors” (The University of Manchester, priority 2015, dated 2020).

Assays:
[1] = tested on: inflammasome / IL-1β release in THP1 cell line; test: IL-1β release from LPS-primed, nigericin-activated THP1 cells (ELISA); format: cell-based, human; settings: for potency in the screen of NBC molecules (effect on IL-1β release): 10 μM compound, 15 min before nigericin (20 μM, 1 h), LPS-primed THP1 cells, normalised to nigericin-induced IL-1β release
Procedure: Data are the mean±SD of at least 4 separate experiments.
To screen the compounds of the invention, the human monocytic THP1 cell line was used. Cells were primed with LPS (1 μg/ml, 4 h) and then treated with vehicle (0.5% DMSO) or NBC molecule of the invention (see compounds listed below) at 10 μM for 15 min before activation of the inflammasome and IL-1β release with nigericin (20 μM, 1 h). The NBC molecule was present throughout nigericin stimulation. The effects of the molecules on IL-1β release were normalised to nigericin-induced IL-1β release in the absence of any inhibitor (FIGS. 1-3).

Structure (SMILES) | melting point | IC50 ([1]; Homo sapiens, THP-1, THP1 cells, LPS primed, nigericin stimulated, FIG. 3) [nM] | potency in the screen of NBC molecules (effect on IL-1β release) [1]
CC(=O)C1=C(C(Cl)(Cl)Cl)N[B-](c2ccccc2)(c2ccccc2)[O+]=C1NCc1ccc2ccc3cccc4ccc1c2c34 | 167 to 169 °C (dec.) | – | –
CC(=O)C1=C(C(Cl)(Cl)Cl)N[B-](c2ccccc2)(c2ccccc2)[O+]=C1N [compound 14, (Z)-2-Acetyl-3-amino-4,4,4-trichlorobut-2-enamide diphenylboron] | – | 500 | most potent
CC1=[O+][B-](c2ccccc2)(c2ccccc2)NC(C(Cl)(Cl)Cl)=C1C(=O)OC(C)(C)C [compound 41, 5-(tert-Butoxycarbonyl)-2,2-di phenyl-6-methyl-4-(trichloromethyl)-2,3-dihydro-1,3,2-oxazaborinin-1-ium-2-uide] | 147 to 149 °C | – | –
NC(=O)C1=C(C(Cl)(Cl)Cl)N[B-](c2ccccc2)(c2ccccc2)[O+]=C1N [compound 42, 6-Amino-5-carbamoyl-2,2-diphenyl-4-(trichloromethyl)-2,3-dihydro-1,3,2-oxazaborinin-1-ium-2-uide] | – | – | most potent

Continued, in another order:

melting point | IC50 ([1]; Homo sapiens, THP-1, THP1 cells, LPS primed, nigericin stimulated, FIG. 3) [nM] | Structure (SMILES) | potency in the screen of NBC molecules (effect on IL-1β release) [1]
53 to 54 °C | – | CC(=O)C1=C(C(Cl)(Cl)Cl)N[B-](c2ccccc2)(c2ccccc2)[O+]=C1NC1CCCCC1 [compound 48, 5-Acetyl-6-(cyclohexylamino)-2,2-diphenyl-4-(trichloromethyl)-2,3-dihydro-1,3,2-oxazaborinin-1-ium-2-uide] | most potent
145 to 148 °C (dec.) | – | CC(=O)C1=C(C(Cl)(Cl)Cl)N[B-](c2ccc(C)cc2)(c2ccc(C)cc2)[O+]=C1N [compound 57, 5-Acetyl-6-amino-2,2-bis(p-tolyl)-4-(trichloromethyl)-2,3-dihydro-1,3,2-oxazaborinin-1-ium-2-uide] | –
141 to 143 °C | – | CC(=O)C1=C(C(Cl)(Cl)Cl)N[B-](c2ccccc2)(c2ccc(C)cc2)[O+]=C1N (stereo not drawn) [compound 59, 5-Acetyl-6-amino-2-(phenyl)-2-(p-tolyl)-4-(trichloromethyl)-2,3-dihydro-1,3,2-oxazaborinin-1-ium-2-uide] | –
